Molecules are shown by their SMILES. Values joined by “and” are separate entries in the source; they are usually repeats but may differ in a detail not shown here. Equal entries are not always repeated. Toxic doses and inconclusive results are not listed.

From PubChem BioAssay AID330 (DTP/NCI, 2004) come the findings set out here.

The subject of this assay is P388 leukemia ip, CD2F1 mice, survival T/C. Nature of the assay: NCI In Vivo Anticancer Drug Screen. Data for tumor model P388 Leukemia (intraperitoneal) in CD2F1 (CDF1) mice. The following applies: endpoint: median survival time, higher = longer survival. Put shortly: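 Mice carrying the transplanted tumor received test compound or vehicle. Survival was recorded in each group, and the value is the treated-group measurement divided by that of the vehicle-treated control group.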

[1] abbreviates: dose: 25.0 mg/kg/injection, schedule: Q01DX009 (ip), vehicle: other.
The mark [2] stands for this setting: dose: 100.0 mg/kg/injection, schedule: Q04DX003 (ip), vehicle: Klucel (hydroxypropylcellulose) (HPC).
[3] abbreviates: dose: 200.0 mg/kg/injection, schedule: Q04DX003 (ip), vehicle: Klucel (hydroxypropylcellulose) (HPC).
Where [4] appears, read: dose: 400.0 mg/kg/injection, schedule: Q04DX003 (ip), vehicle: Klucel (hydroxypropylcellulose) (HPC).
Where [5] appears, read: dose: 50.0 mg/kg/injection, schedule: Q01DX005 (ip), vehicle: saline with Tween-80.
Where [6] appears, read: dose: 100.0 mg/kg/injection, schedule: Q01DX005 (ip), vehicle: saline with Tween-80.
The mark [7] stands for this setting: dose: 200.0 mg/kg/injection, schedule: Q01DX005 (ip), vehicle: saline with Tween-80.
Setting [8] is: dose: 60.0 mg/kg/injection, schedule: Q01DX005 (ip), vehicle: saline with Tween-80.
[9] abbreviates: dose: 120.0 mg/kg/injection, schedule: Q01DX005 (ip), vehicle: saline with Tween-80.
Where [10] appears, read: dose: 240.0 mg/kg/injection, schedule: Q01DX005 (ip), vehicle: saline with Tween-80.
Where [11] appears, read: dose: 50.0 mg/kg/injection, schedule: Q01DX005 (ip), vehicle: Klucel (hydroxypropylcellulose) (HPC).
The mark [12] stands for this setting: dose: 100.0 mg/kg/injection, schedule: Q01DX005 (ip), vehicle: Klucel (hydroxypropylcellulose) (HPC).
The mark [13] stands for this setting: dose: 200.0 mg/kg/injection, schedule: Q01DX005 (ip), vehicle: Klucel (hydroxypropylcellulose) (HPC).
The mark [14] stands for this setting: dose: 15.0 mg/kg/injection, schedule: Q01DX005 (ip), vehicle: saline with Tween-80.
Where [15] appears, read: dose: 25.0 mg/kg/injection, schedule: Q01DX005 (ip), vehicle: Klucel (hydroxypropylcellulose) (HPC).
Where [16] appears, read: dose: 6.25 mg/kg/injection, schedule: Q01DX005 (ip), vehicle: Klucel (hydroxypropylcellulose) (HPC).

In the case of `CCOC(=O)c1[nH]c(C#N)c(C(=O)OCC)c1C`, the T/C runs as follows: (dose: 100.0 mg/kg/injection, schedule: Q01DX009 (ip), vehicle: saline with Tween-80) 86 % of control; (dose: 200.0 mg/kg/injection, schedule: Q01DX009 (ip), vehicle: saline with Tween-80) 96 % of control; (dose: 400.0 mg/kg/injection, schedule: Q01DX009 (ip), vehicle: saline with Tween-80) 105 % of control.

As for `COC(=O)C1=C(C(=O)OC)C(C)(C)N=N1`, the T/C (dose: 5.3 mg/kg/injection, schedule: Q01DX009 (ip), vehicle: other) is 111 % of control; the T/C (dose: 8.0 mg/kg/injection, schedule: Q01DX009 (ip), vehicle: other) was 117 % of control; the T/C (dose: 12.0 mg/kg/injection, schedule: Q01DX009 (ip), vehicle: other) was 114 % of control; the T/C (dose: 18.0 mg/kg/injection, schedule: Q01DX009 (ip), vehicle: other) was 112 % of control; the T/C under setting [1] was 99 % of control.

On to `O=C1c2ccccc2C(=O)N1C(=NC1CCCCC1)c1ccccc1`, for which the T/C reads like this: under setting [2], 104 % of control; under setting [3], 101 % of control; under setting [4], 109 % of control.

Regarding `CNC(=O)OCc1c(COC(=O)NC)c2n(c1C)CCS2(=O)=O`, the T/C by setting is: (dose: 25.0 mg/kg/injection, schedule: Q01DX005 (ip), vehicle: saline with Tween-80) 106 % of control; under setting [5], 101 % of control; under setting [6], 86 % of control; under setting [7], 88 % of control.

With `N/C=N/OC(c1ccccc1)c1ccccc1`, the T/C (dose: 50.0 mg/kg/injection, schedule: Q01DX005 (ip), vehicle: Klucel + Tween-80) is 99 % of control; the T/C (dose: 100.0 mg/kg/injection, schedule: Q01DX005 (ip), vehicle: Klucel + Tween-80) is 102 % of control; the T/C (dose: 200.0 mg/kg/injection, schedule: Q01DX005 (ip), vehicle: Klucel + Tween-80) is 98 % of control.

Regarding `C1=CC2C1C1OC1C1OC21` (configuration not stated), the T/C reads like this: (dose: 100.0 mg/kg/injection, schedule: Q04DX002 (ip), vehicle: saline with Tween-80) 101 % of control; (dose: 200.0 mg/kg/injection, schedule: Q04DX002 (ip), vehicle: saline with Tween-80) 100 % of control; (dose: 400.0 mg/kg/injection, schedule: Q04DX002 (ip), vehicle: saline with Tween-80) 101 % of control.

As for `O=C1NN2CCCN=C2c2ncccc21`, the T/C was 104 % of control under setting [8], 103 % of control under setting [9] and 108 % of control under setting [10].

In the case of `CN(C)CCN1C(=O)CN=C(c2ccccc2Cl)c2cc(Cl)ccc21`, the T/C is, setting by setting: (dose: 60.0 mg/kg/injection, schedule: Q01DX005 (ip), vehicle: saline) 102 % of control; (dose: 120.0 mg/kg/injection, schedule: Q01DX005 (ip), vehicle: saline) 99 % of control; (dose: 240.0 mg/kg/injection, schedule: Q01DX005 (ip), vehicle: saline) 95 % of control.

For the compound `Cc1cc(Cl)cc(C(=O)c2ccccc2)c1OC(N)=O`, the T/C runs as follows: under setting [11], 101 % of control; under setting [12], 103 % of control; under setting [13], 106 % of control.

Take `Cc1ncc(C(O)c2ccc(Cl)cc2)n1Cc1ccccc1` (configuration not stated): the T/C runs as follows: under setting [8], 96 % of control; under setting [9], 104 % of control; under setting [10], 99 % of control.

`COc1cccc(/C=C/c2cc3c(cc2Br)OCO3)c1`: the T/C is 102 % of control under setting [11], 108 % of control under setting [12] and 101 % of control under setting [13].

`O=c1c2cc3c(cc2c2cccc4c2n1CC4)OCO3`: the T/C under setting [1] is 96 % of control; the T/C (dose: 50.0 mg/kg/injection, schedule: Q01DX009 (ip), vehicle: other) is 100 % of control; the T/C (dose: 100.0 mg/kg/injection, schedule: Q01DX009 (ip), vehicle: other) is 86 % of control; the T/C (dose: 200.0 mg/kg/injection, schedule: Q01DX009 (ip), vehicle: other) was 89 % of control; the T/C (dose: 400.0 mg/kg/injection, schedule: Q01DX009 (ip), vehicle: other) was 91 % of control.

`CN(C)c1ccc(C(=C2C=CC(=[N+](C)c3ccccc3)c3ccccc32)c2ccc(N(C)C)cc2)cc1`: the T/C (dose: 1.56 mg/kg/injection, schedule: Q01DX005 (ip), vehicle: saline with Tween-80) is 116 % of control.

For `O=C(/C=C/c1cn(C(=O)CCCl)c2ccccc12)c1cccc([N+](=O)[O-])c1`, the T/C by setting is: under setting [8], 99 % of control; under setting [9], 96 % of control; under setting [10], 89 % of control.

In the case of `O=C(O)/C(Cl)=C(\Cl)C(=O)Nc1cccc([N+](=O)[O-])c1`, the T/C is 100 % of control (dose: 7.5 mg/kg/injection, schedule: Q01DX005 (ip), vehicle: saline with Tween-80); 101 % of control under setting [14]; 100 % of control and 103 % of control under setting [8]; 106 % of control under setting [9].

Turning to `CC1=CC(=C2C(=O)c3ccccc3C2=O)C=C(C)O1`, the T/C runs as follows: under setting [11], 101 % of control; (dose: 60.0 mg/kg/injection, schedule: Q01DX005 (ip), vehicle: Klucel (hydroxypropylcellulose) (HPC)) 95 % of control; under setting [12], 89 % of control; (dose: 120.0 mg/kg/injection, schedule: Q01DX005 (ip), vehicle: Klucel (hydroxypropylcellulose) (HPC)) 90 % of control; under setting [13], 88 % of control; (dose: 240.0 mg/kg/injection, schedule: Q01DX005 (ip), vehicle: Klucel (hydroxypropylcellulose) (HPC)) 87 % of control.

As to `C=C(Br)COc1ccc2c(C)cc(=O)oc2c1`, the T/C reads like this: under setting [8], 115 % of control; under setting [9], 100 % of control; under setting [10], 96 % of control.

In the case of `O=C1c2ccccc2C(=O)N1CCCC[P+](c1ccccc1)(c1ccccc1)c1ccccc1`, the T/C reads like this: (dose: 1.5 mg/kg/injection, schedule: Q01DX009 (ip), vehicle: other) 112 % of control; (dose: 3.0 mg/kg/injection, schedule: Q01DX009 (ip), vehicle: other) 116 % of control; (dose: 6.0 mg/kg/injection, schedule: Q01DX009 (ip), vehicle: other) 116 % of control; (dose: 9.0 mg/kg/injection, schedule: Q01DX009 (ip), vehicle: other) 121 % of control.

Take `Cc1cccc(Nc2ncnc3c2c(=O)n(C)c(=O)n3C)c1`: the T/C is 91 % of control under setting [14]; 94 % of control (dose: 30.0 mg/kg/injection, schedule: Q01DX005 (ip), vehicle: saline with Tween-80); 86 % of control under setting [8].

With `CCO/C=C1/N=C(c2cc(Cl)cc([N+](=O)[O-])c2)OC1=O`, the T/C is, setting by setting: under setting [8], 101 % of control; under setting [9], 101 % of control; under setting [10], 93 % of control.

`NC(C(=O)O)/C1=C/CCCCCC1` (configuration not stated): the T/C is, setting by setting: under setting [15], 106 % of control; under setting [11], 101 % of control; under setting [12], 98 % of control; under setting [13], 101 % of control.

As for `C[CH2][Sn]([CH2]C)([n]1c2ccccc2c2c(C)c3cnccc3c(C)c21)[n]1c2ccccc2c2c(C)c3cnccc3c(C)c21`, the T/C runs as follows: (dose: 1.56 mg/kg/injection, schedule: Q01DX005 (ip), vehicle: Klucel (hydroxypropylcellulose) (HPC)) 118 % of control; under setting [16], 155 % of control.

Take `CCN1C(=O)NC(=O)C(C)(N2CCCCC2)C1=O` (configuration not stated): the T/C by setting is: under setting [11], 108 % of control; under setting [12], 103 % of control; under setting [13], 100 % of control.

For `Cc1nc(N)[nH]c(=O)c1-c1ccc(Cl)cc1`, the T/C is, setting by setting: under setting [2], 106 % of control; under setting [3], 105 % of control; under setting [4], 99 % of control.

For `CCP(CC)(c1ccccc1)=c1c(=O)c(Cl)c(Cl)c(=O)c1=O`, the T/C by setting is: under setting [16], 100 % of control; (dose: 12.5 mg/kg/injection, schedule: Q01DX005 (ip), vehicle: Klucel (hydroxypropylcellulose) (HPC)) 102 % of control; under setting [15], 100 % of control.

In the case of `COC(=O)[C@H]1[C@H]2C[C@@H]3c4[nH]c5cc(OC)ccc5c4CCN3C[C@H]2C[C@@H](OC(=O)CC(C)=O)[C@@H]1OC`, the T/C by setting is: under setting [5], 95 % of control; under setting [6], 91 % of control; under setting [7], 88 % of control.

Regarding `COc1ccc(OC(=O)/C=C/c2ccccc2)cc1`, the T/C (dose: 85.0 mg/kg/injection, schedule: Q04DX002 (ip), vehicle: saline with Tween-80) is 102 % of control.
